In publication PMC12196476, “New Nitrogen-, Oxygen-, and Sulfur-Containing Heterocyclic Compounds as Anti-Colon Cancer Agents: Synthesis, Multitargeted Evaluations, Molecular Docking Simulations and ADMET Predictions” (Pharmaceuticals, 2025):

What was measured:
LoVo cells = experiment: Annexin V-FITC/PI apoptosis assay, LoVo; type: cell-based, human; details: 30 µg/mL, 48 h, Figure 3B plot
Description: Translocation of phosphatidylserine (PS) residues on the cell surface is an early apoptosis indicator, detectable through flow cytometric analysis and using double staining with propidium iodide (PI) dye and fluorescein isothiocyanate (FITC)-conjugated Annexin V (Annexin V-FITC). […]
μg/mL for 48 h. […]
S3.2.6. Annexin-V-FITC assay. […]
treatment with compound 3d. HCT-116 and LoVo cells were treated with vehicle (DMSO) and 3d […]
in Annexin-V binding buffer (BioVision Research Products, USA). The cells were then stained with Annexin V-FITC and propidium iodide (PI). Using the FITC signal detector (usually FL1) for […]
of stained cancerous cells were determined. […]

[1] = tested on: HCT-116 colon carcinoma cells; experiment: Cell viability, LDH release assay, HCT-116; details: Homo sapiens, HCT-116, 48 h
[2] = tested on: Bax, Bcl-2 and Casp-3 genes expression in LoVo cells; experiment: qRT-PCR of Bax, Bcl-2 and Casp-3 gene expression, LoVo; type: cell-based, human; details: 30 µg/mL, 48 h
Description: To investigate molecular events downstream of ROS generation, we evaluated mRNA expression levels of key regulators of mitochondrial apoptosis—Bax and Bcl-2—using qRT-PCR. […] As a result, the Bax/Bcl-2 ratios were calculated to be 12.63 in LoVo cells and 8.71 in HCT-116 cells, reflecting a pronounced pro-apoptotic shift. This alteration in the Bax/Bcl-2 ratio strongly supports the activation of the mitochondrial apoptotic pathway.
To confirm activation of the execution phase of apoptosis, Casp-3 mRNA levels were evaluated by qRT-PCR.
The expression levels of these genes were determined using a quantitative real-time PCR technique. […]
S3.2.9. Quantification of the Expression Levels of Bax, Bcl-2 and Caspase-3 Genes
Human colon cancer cell lines (HCT-116 and LoVo) were cultured for 24 h in a 25 mL flask at
a density of 1 * 10^6 cells/flask as described in section S3.2.4. Cells were treated with 30 µg/mL
of compound 3d in 2 mL of fresh medium containing 1% FBS, or with 0.25 % DMSO as a
negative control, for 48 h. Afterwards, cells were washed with ice-cold phosphate-buffered
saline (PBS) and adherent cells were detached using trypsin solution.
Table S7 lists primers amplifying 100-200 bp of Bax, Bcl-2 and Caspase-3 genes. These primers
were designed using primer blast software (https://www.ncbi.nlm.nih.gov/tools/primer-
Table S7. Primer sequences for Bax, Bcl-2, Caspase-3, and GAPDH (control)
Gene Primer sequence (5’ to 3’)
Bcl-2 F 5’-[…] -3’,
Caspase 3 F 5’- […]-3’,
GAPDH F 5’- […]-3’
• Reverse-Transcription PCR (RT-PCR)
The total RNA was extracted from untreated and treated cells using the RNeasy Mini Kit
(Qiagen, DE). A Nanodrop 8000 spectrophotometer (Thermo Fisher Scientific, USA) was
used to check the RNA purity and quality. The Hyperscript Kit (GeneAll, KR) and random
hexamers (GeneAll, KR) were used as described in the manufacturer’s protocol to reverse-
transcript 1µg of RNA from each sample into cDNA.
• Quantitative real-time PCR
The mRNA expression of Bax, Bcl-2, and Caspase-3 were measured using QuantStudio
7Flex Detection System (Applied Biosystems, USA). The iScript One-Step RT-PCR Kit with
SYBR Green (Cat no: 170-8892; Bio-Rad, CA, USA) was used to carry out the reactions for
the synthesis of cDNA. Each cDNA sample (5 µl) was added in a 20 µL PCR mixture

PDK-1 = PDK-1 (Homo sapiens, UniProt Q15118); experiment: In vitro PDK-1 inhibition assay (Kinase-Glo luminescent kinase kit); type: biochemical
[3] = relative to untreated controls, normalized to GAPDH

Sequence of PDK-1 (Q15118 29-436): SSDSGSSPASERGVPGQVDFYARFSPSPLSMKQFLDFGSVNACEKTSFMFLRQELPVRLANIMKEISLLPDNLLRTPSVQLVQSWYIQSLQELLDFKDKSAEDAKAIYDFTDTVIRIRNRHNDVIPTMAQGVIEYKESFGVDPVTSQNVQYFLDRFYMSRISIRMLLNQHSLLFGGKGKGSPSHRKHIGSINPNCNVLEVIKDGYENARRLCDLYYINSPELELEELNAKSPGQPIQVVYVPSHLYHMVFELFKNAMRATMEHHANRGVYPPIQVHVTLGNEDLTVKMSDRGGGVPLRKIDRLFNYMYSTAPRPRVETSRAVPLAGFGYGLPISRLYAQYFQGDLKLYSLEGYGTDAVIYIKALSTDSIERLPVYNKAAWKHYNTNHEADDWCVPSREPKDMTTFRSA

- IC50 ([1]; read-out: Mean IC50 Values in µM ± SD, HCT-116 cells): 161 µM
- inhibition at 100 µg/mL (PDK-1; 100 µg/mL, three replicates, read-out: Mean Inhibition Percent ± SD, PDK-1): 41.8 ± 3.39%
- IC50 (PDK-1; three independent experiments, read-out: Mean IC50 µM ± SD, PDK-1): 305 ± 11.1 µM
SMILES: COc1cc(/C=N/c2ncnc3sc4c(c23)CCCC4)cc(OC)c1OC [Compound 3d, (E)-N-(5,6,7,8-Tetrahydrobenzo[4,5]thieno[2,3-d]pyrimidin-4-yl)-1-(3,4,5-trimethoxyphenyl)methanimine]
- Necrotic population (Annexin-V−/PI+), LoVo (LoVo cells): 4.14%
- Late apoptotic cells (both Annexin-V and PI positive), LoVo (LoVo cells; control 0.09%): 9.92%
- Early apoptotic cells (Annexin V-FITC positive and PI negative), LoVo (LoVo cells; control 0.44%): 17.12%
- viability at 100 µg/mL ([1]; read-out: Mean % of viable cells ± SD, HCT-116, 100 µg/mL, 48 h, LDH release assay): < 29%
- Bax/Bcl-2 ratio, LoVo cells [2]: 12.63
- Bax mRNA expression, fold of control (LoVo) [2, 3]: 3.03 ± 0.41 fold
- Bcl-2 mRNA expression, fold of control (LoVo) [2, 3]: 0.24 ± 0.03 fold
- Casp-3 mRNA expression, fold of control (LoVo) [2, 3]: 5.35 ± 0.33 fold
